Experimental data: patent US8618107B2 (Gilead Connecticut, Inc., priority 2010, dated 2013)

Assays:
[1] = system: CD86 surface expression on CD19+/7AAD- mouse splenocytes stimulated with IgM; assay: CD86 Inhibition Assay; type: cell-based; details: Splenocyte; total mouse splenocytes (Balb/c), IgM stimulation 24 hr
Procedure: Following the 24 hr incubation, cells are transferred to conical bottom clear 96-well plates and pelleted by centrifugation at 1200×g×5 min. […] Cells are sorted on a BD FACSCalibur and gated on the CD19^+/7AAD^− population. The levels of CD86 surface expression on the gated population is measured versus test compound concentration.

[2] = molecular target: Btk (Homo sapiens (Human), UniProt Q06187); assay: standard biochemical Btk Kinase Assay (Example 901)
Btk, sequence (Q06187 whole entry): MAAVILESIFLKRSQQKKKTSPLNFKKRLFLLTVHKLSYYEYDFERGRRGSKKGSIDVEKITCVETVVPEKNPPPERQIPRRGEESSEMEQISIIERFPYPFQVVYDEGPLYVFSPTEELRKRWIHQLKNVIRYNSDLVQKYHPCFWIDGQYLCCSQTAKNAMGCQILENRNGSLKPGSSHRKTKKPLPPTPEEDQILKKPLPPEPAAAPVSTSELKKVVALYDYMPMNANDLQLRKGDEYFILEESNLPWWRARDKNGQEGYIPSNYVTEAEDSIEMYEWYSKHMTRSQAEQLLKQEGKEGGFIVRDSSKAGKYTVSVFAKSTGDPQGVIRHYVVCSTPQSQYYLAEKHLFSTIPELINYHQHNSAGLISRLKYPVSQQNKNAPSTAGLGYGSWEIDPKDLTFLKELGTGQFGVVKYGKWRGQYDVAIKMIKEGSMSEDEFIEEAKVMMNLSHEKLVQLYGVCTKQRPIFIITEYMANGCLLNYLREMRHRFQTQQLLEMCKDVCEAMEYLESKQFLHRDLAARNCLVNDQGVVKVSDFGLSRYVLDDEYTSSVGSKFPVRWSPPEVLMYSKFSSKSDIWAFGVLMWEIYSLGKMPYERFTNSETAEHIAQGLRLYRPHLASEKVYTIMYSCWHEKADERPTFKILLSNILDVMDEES

CN1CCCC1c1ccc(Nc2cc(-c3cc(F)cc(N4CCc5c(sc6c5CCCC6)C4=O)c3CO)cn(C)c2=O)nc1 (stereo not drawn)
melting point: 164 to 166 °C

Cn1cc(-c2cccc(N3CCn4c(cc5c4CCCC5)C3=O)c2CO)cc(Nc2cc3n(n2)CCOC3)c1=O [Example 110, 2-(3-(5-(6,7-dihydro-4H-pyrazolo[5,1-c][1,4]oxazin-2-ylamino)-1-methyl-6-oxo-1,6-dihydropyridin-3-yl)-2-(hydroxymethyl)phenyl)-3,4,6,7,8,9-hexahydropyrazino[1,2-a]indol-1(2H)-one]
EC50 [1]: 22 nM
IC50 ([2]; Table 1): 7.7 nM

CN1CCN(c2ccc(Nc3cc(-c4cccc(N5CCn6c(cc7c6CCCC7)C5=O)c4CO)cn(C)c3=O)nc2)CC1 [Example 113, 2-(2-(hydroxymethyl)-3-(1-methyl-5-(5-(4-methylpiperazin-1-yl)pyridine-2-ylamino)-6-oxo-1,6-dihydropyridin-3-yl)phenyl)-3,4,6,7,8,9-hexahydropyrazino[1,2-a]indol-1(2H)-one]
EC50 [1]: 21 nM
IC50 ([2]; Table 1): 5 nM

Cn1cc(-c2cccc(N3CCc4c(sc5c4CC(C)(C)C5)C3=O)c2CO)cc(Nc2cc3n(n2)CCOC3)c1=O [Example 183]
melting point: 167 to 168 °C

Cn1cc(-c2cccc(N3CCc4c(sc5c4CC(C)(C)C5)C3=O)c2CO)nc(Nc2cccnc2)c1=O [Example 193, 5-(2-(Hydroxymethyl)-3-(6,6-dimethyl-3,4,6,7-tetrahydro-5H-cyclopenta[4,5]thieno[2,3-c]pyridine-1(2H)-yl))-1-methyl-3-(pyridin-3-ylamino)pyrazin-2(1H)-one]
melting point: 135 to 136 °C

Cn1cc(-c2cccc(-n3ccc4c5c(sc4c3=O)CC(C)(C)C5)c2CO)cc(Nc2ccncn2)c1=O [Example 203, 5-(3-(6,6-Dimethyl-5,7-dihydro-5H-cyclopenta[4,5]thieno[2,3-c]pyridine-1(2H)-yl)-2-(hydroxymethyl)phenyl)-1-methyl-3-(pyrimidin-4-ylamino)pyridin-2(1H)-one]
melting point: 170 to 171 °C

CN1CCN(c2ccc(Nc3cc(-c4cc(F)cc(N5CCc6c(sc7c6CC(C)(C)C7)C5=O)c4CO)cn(C)c3=O)nc2)CC1 [Example 204]
melting point: 143 to 145 °C

Cc1cc(Nc2cc(-c3cccc(N4CCc5c(cc6n5CCCC6)C4=O)c3CO)cn(C)c2=O)n[nH]1 [Example 225, 2-(2-(Hydroxymethyl)-3-(1-methyl-5-(5-methyl-1H-pyrazol-3-ylamino)-6-oxo-1,6-dihydropyridin-3-yl)phenyl)-3,4,6,7,8,9-hexahydropyrido[3,4-b]indolizin-1(2H)-one]
melting point: 199 to 200 °C

Cn1cc(-c2cccc(N3CCc4c(cc5n4CCCC5)C3=O)c2CO)cc(Nc2ccc(C3CNC3)cn2)c1=O [Example 227, 2-(3-(5-(5-(Azetidin-3-yl)pyridin-2-ylamino)-1-methyl-6-oxo-1,6-dihydropyridin-3-yl)-2-(hydroxymethyl)phenyl)-3,4,6,7,8,9-hexahydropyrido[3,4-b]indolizin-1(2H)-one]
melting point: 227 to 229 °C

Cn1cc(-c2cc(F)cc(N3CCc4c(sc5c4CC(C)(C)C5)C3=O)c2CO)cc(Nc2ccc(N3CCN(C4COC4)CC3)cn2)c1=O [Example 237]
melting point: 175 to 177 °C

CC(C)N1CCN(c2ccc(Nc3cc(-c4cc(F)cc(N5CCc6c(sc7c6CC(C)(C)C7)C5=O)c4CO)cn(C)c3=O)nc2)CC1 [Example 239]
melting point: 191 to 192 °C

Cn1cc(-c2cc(F)cc(N3CCn4c(cc5c4CC(C)(C)C5)C3=O)c2CO)cc(Nc2ccc(N3CCN(CCF)CC3)cn2)c1=O [Example 273, 10-{5-Fluoro-3-[5-({5-[4-(2-fluoroethyl)piperazin-1-yl]pyridine-2-yl}amino)-1-methyl-6-oxo-1,6-dihydropyridin-3-yl]-2-(hydroxymethyl)phenyl}-4,4-dimethyl-1,10-diazatricyclo[6.4.0.0^2,6]dodeca-2(6),7-dien-9-one]
EC50 [1]: 3 nM
IC50 ([2]; Table 2): 6.35 nM

CCN1CCc2nc(Nc3cc(-c4cc(F)cc(N5CCn6c(cc7c6CC(C)(C)C7)C5=O)c4CO)cn(C)c3=O)ccc2C1 [Example 284, 10-(3-{5-[(6-Ethyl-5,6,7,8-tetrahydro-1,6-naphthyridin-2-yl)amino]-1-methyl-6-oxo-1,6-dihydropyridin-3-yl}-5-fluoro-2-(hydroxymethyl)phenyl)-4,4-dimethyl-1,10-diazatricyclo[6.4.0.0^2,6]dodeca-2(6),7-dien-9-one]
EC50 [1]: 6 nM
IC50 ([2]; Table 2): 2.8 nM

CCN1CCn2nc(Nc3cc(-c4cc(F)cc(N5CCn6c(cc7c6CC(C)(C)C7)C5=O)c4CO)cn(C)c3=O)cc2C1 [Example 285, 10-{3-[5-({5-Ethyl-4H,5H,6H,7H-pyrazolo[1,5-a]pyrazin-2-yl}amino)-1-methyl-6-oxo-1,6-dihydropyridin-3-yl]-5-fluoro-2-(hydroxymethyl)phenyl}-4,4-dimethyl-1,10-diazatricyclo[6.4.0.0^2,6]dodeca-2(6),7-dien-9-one]
EC50 [1]: 11 nM
IC50 ([2]; Table 2): 3.6 nM

CN1CCC(c2ccc(Nc3cc(-c4cc(F)cc(N5CCc6c(sc7c6CCCC7)C5=O)c4CO)cn(C)c3=O)nc2)C1 (stereo not drawn) [Example 308, 5-[5-Fluoro-2-(Hydroxymethyl)-3-(1-methyl-5-{[5-(1-methylpyrrolidin-3-yl)pyridine-2-yl]amino}-6-oxo-1,6-dihydropyridin-3-yl)phenyl]-8-thia-5-azatricyclo-[7.4.0.0^2,7]trideca-1(9),2(7)-dien-6-one]
EC50 [1]: 63 nM

Cn1cc(-c2cccc(N3CCn4c(cc5c4CC(C)(C)C5)C3=O)c2CO)cc(Nc2ccc(N3CCN(C4COC4)CC3)cn2)c1=O [Example 311, 10-[2-(Hydroxymethyl)-3-[1-methyl-5-({5-[4-(oxetan-3-yl)piperazin-1-yl]pyridine-2-yl}amino)-6-oxo-1,6-dihydropyridin-3-yl]phenyl]-4,4-dimethyl-1,10-diazatricyclo[6.4.0.0^2,6]dodeca-2(6),7-dien-9-one]
EC50 [1]: 30 nM

Cn1cc(-c2cc(F)cc(N3CCc4c(sc5c4CC(C)(C)C5)C3=O)c2CO)cc(Nc2cc3n(n2)CCN(C2COC2)C3)c1=O [Example 318, 10-[5-Fluoro-2-(hydroxymethyl)-3-(1-methyl-5-{[5-(oxetan-3-yl)-4H,5H,6H,7H-pyrazolo[1,5-a]pyrazin-2-yl]amino}-6-oxo-1,6-dihydropyridin-3-yl)phenyl]-4,4-dimethyl-7-thia-10-azatricyclo[6.4.0.0^2,6]dodeca-1(8),2(6)-dien-9-one]
EC50 [1]: 18 nM

Cn1cc(-c2cccc(N3CCn4c(cc5c4CCCC5)C3=O)c2CO)cc(Nc2cc3n(n2)CCN(C2COC2)C3)c1=O [Example 319, 2-(2-(Hydroxymethyl)-3-(1-methyl-5-(5-(oxetan-3-yl)-4,5,6,7-tetrahydropyrazolo[1,5-a]pyrazin-2-ylamino)-6-oxo-1,6-dihydropyridin-3-yl)phenyl)-3,4,6,7,8,9-hexahydropyrazino[1,2-a]indol-1(2H)-one]
EC50 [1]: 16 nM

CN(Cc1cc(Nc2cc(-c3cc(F)cc(N4CCn5c(cc6c5CC(C)(C)C6)C4=O)c3CO)cn(C)c2=O)nn1C)C1COC1 [Example 321, 10-[5-Fluoro-2-(Hydroxymethyl)-3-{1-methyl-5-[(1-methyl-5-{[methyl(oxetan-3-yl)amino]methyl}-1H-pyrazol-3-yl)amino]-6-oxo-1,6-dihydropyridin-3-yl}phenyl]-4,4-dimethyl-1,10-diazatricyclo[6.4.0.0^2,6]dodeca-2(6),7-dien-9-one]
EC50 [1]: 44 nM
